Literature values in patent publication US6967218B2, “Pravastatin pharmaceutical formulations and methods of their use” (Biovail Laboratories, Inc., priority 2002, dated 2005).

Columns and labels:
[1] = intravenous, healthy volunteers
[2] = in vivo
[3] = Schalke et al, 1992

- decrease of systemic bioavailability after bedtime (PM) dose compared to morning (AM) dose (PM vs AM dose): 60%
- absolute bioavailability (oral, man): 17%
- fraction of radiolabeled oral dose excreted in feces (radiolabeled oral dose): 70%
- fraction of radiolabeled oral dose excreted in urine (radiolabeled oral dose): Approximately 20%
- share of total body clearance by non-renal routes (biliary excretion and biotransformation) [1]: 53%
- share of total body clearance via renal excretion [1]: approximately 47%
- first-pass extraction ratio in the liver [2]: 0.66
SMILES: CC[C@H](C)C(=O)O[C@H]1C[C@H](O)C=C2C=C[C@H](C)[C@H](CC[C@@H](O)C[C@@H](O)CC(=O)O)[C@H]21 [pravastatin, Pravastatin]
- adverse effect observed in treated patients [3]: Severe myopathy
